According to patent publication US8557796B2, “Substituted 1-oxa-2,8-diaza-spiro [4,5] dec-2-ene derivatives and related treatment methods” (Gruenenthal GmbH, priority 2001, dated 2013):

Legend:
5HT-uptake = biological target: T1, 5HT-uptake (Rattus norvegicus, UniProt P31652); assay: Serotonin uptake inhibition (5HT uptake) in synaptosomes; format: biochemical; settings: rat brain synaptosomes
T1 construct: synaptosomes from rat brain regions were freshly isolated; from tissue; host or cells: P2 synaptosome fraction from rat brain regions
T1 sequence (P31652 whole entry): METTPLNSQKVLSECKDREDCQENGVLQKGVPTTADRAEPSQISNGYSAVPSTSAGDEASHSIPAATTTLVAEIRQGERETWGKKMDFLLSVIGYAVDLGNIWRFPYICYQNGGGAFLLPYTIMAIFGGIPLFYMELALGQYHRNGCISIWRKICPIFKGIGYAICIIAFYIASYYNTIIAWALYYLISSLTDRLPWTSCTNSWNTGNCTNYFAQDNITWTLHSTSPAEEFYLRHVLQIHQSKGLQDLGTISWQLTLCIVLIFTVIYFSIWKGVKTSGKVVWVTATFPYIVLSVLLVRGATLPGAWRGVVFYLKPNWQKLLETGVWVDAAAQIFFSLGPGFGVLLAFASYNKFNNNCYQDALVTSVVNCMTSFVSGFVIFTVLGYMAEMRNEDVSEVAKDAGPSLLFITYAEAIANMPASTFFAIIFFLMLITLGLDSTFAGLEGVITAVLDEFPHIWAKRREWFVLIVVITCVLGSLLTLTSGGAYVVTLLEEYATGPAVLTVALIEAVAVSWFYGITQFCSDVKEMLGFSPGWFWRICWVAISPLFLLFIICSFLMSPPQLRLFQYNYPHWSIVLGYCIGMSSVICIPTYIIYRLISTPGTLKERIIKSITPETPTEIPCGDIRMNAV
Excerpt: Tests on Serotonin Uptake (5HT Uptake Inhibition)

NA transporter = biological target: T2, NA transporter (Rattus norvegicus, UniProt Q9WTR4); assay: Noradrenalin uptake inhibition (NA-uptake) in synaptosomes; format: biochemical; settings: rat hypothalamus synaptosomes
T2 construct: synaptosomes from rat brain regions were freshly isolated; from tissue; host or cells: P2 synaptosome fraction from hypothalamus of male rat brain
T2 sequence (Q9WTR4 1-597): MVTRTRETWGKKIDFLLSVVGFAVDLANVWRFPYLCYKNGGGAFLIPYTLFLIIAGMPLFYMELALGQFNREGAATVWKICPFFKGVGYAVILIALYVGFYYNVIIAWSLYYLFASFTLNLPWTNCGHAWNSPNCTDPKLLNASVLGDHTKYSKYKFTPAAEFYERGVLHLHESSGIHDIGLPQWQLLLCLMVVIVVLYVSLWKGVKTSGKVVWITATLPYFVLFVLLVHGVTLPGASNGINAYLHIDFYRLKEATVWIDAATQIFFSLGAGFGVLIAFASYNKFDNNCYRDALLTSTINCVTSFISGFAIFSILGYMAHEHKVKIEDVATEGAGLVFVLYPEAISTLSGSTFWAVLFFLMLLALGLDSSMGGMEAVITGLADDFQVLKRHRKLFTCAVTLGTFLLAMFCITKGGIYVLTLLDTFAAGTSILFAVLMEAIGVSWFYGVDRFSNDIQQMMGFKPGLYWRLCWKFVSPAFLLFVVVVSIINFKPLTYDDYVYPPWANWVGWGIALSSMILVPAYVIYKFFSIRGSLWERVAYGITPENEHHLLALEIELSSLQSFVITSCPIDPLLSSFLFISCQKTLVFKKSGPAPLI
Excerpt: Tests on Noradrenalin Uptake Inhibition (NA-Uptake Inhibition)
In order to be able to carry out these in vitro studies, synaptosomes from rat brain regions were freshly isolated.

α2A-receptor = biological target: T3, α2A-receptor (Homo sapiens, UniProt P08913); assay: α2A-assay, displacement of a marked ligand; format: binding; settings: human receptor membranes, read-out: alpha2A human, 1 μM, % inhibition
T3 construct: purchased
T3 sequence (P08913 1-465): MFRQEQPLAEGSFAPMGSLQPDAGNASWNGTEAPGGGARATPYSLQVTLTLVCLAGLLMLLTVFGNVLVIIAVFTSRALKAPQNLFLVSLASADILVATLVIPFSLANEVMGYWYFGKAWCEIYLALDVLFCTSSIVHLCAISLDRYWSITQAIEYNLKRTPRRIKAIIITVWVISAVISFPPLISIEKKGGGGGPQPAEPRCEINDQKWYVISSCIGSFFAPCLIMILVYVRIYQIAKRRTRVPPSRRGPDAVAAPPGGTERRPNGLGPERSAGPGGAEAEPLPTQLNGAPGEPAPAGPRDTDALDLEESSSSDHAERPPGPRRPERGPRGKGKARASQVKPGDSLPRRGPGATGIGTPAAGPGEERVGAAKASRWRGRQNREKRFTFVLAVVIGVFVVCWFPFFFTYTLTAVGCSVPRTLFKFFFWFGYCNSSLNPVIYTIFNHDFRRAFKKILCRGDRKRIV
Protocol: The bond was measured here by the displacement of a marked ligand. The test was carried out according to J. P. Devlin's instructions, “High throughput screening—the discovery of bioactive substances”, p. 275-453, Marcel Dekker, New York, 1997. Membranes containing […] (human) were obtained commercially.
Compounds according to the invention were tested in this assay: the measured results are recited in Table 5: […]

With `Cc1ccc(S(=O)(=O)N2CCC3(CC2)CC(C(=O)N2CCN(c4ccc(C)cc4C)CC2)=NO3)cc1` [Example 33, [4-(2,4-dimethyl-phenyl)-piperazin-l-yl]-[8-(toluene-4-sulphonyl)-1-oxa-2,8-diazaspiro[4,5]dec-2-en-3-yl]methanone] the “5HT-uptake, 10 μM, % inhibition” value (5HT-uptake) was 57% and the “NA-uptake, 10 μM, % inhibition” value (NA transporter) was 42%.
`COc1ccccc1C1CCN(C(=O)C2=NOC3(CCN(S(=O)(=O)c4ccc(Cl)s4)CC3)C2)CC1` [Example 151, [8-(5-chloro-thiophene-2-sulphonyl)-1-oxa-2,8-diaza-spiro[4,5]dec-2-en-3-yl]-[4-(2-methoxy-phenyl)-piperidin-1-yl]-methanone] showed an inhibition at 1 µM (α2A-receptor) of 33%.
`Cc1cc(C(=O)N2CCC3(CC2)CC(C(=O)NCc2ccncc2)=NO3)ccc1Br` [Example 130, 8-(4-bromo-3-methyl-benzoyl)-1-oxa-2,8-diaza-spiro[4,5]dec-2-ene-3-carboxylic acid (pyridin-4-ylmethyl)-amide] showed an inhibition at 10 µM (5HT-uptake) of 64% and an inhibition at 10 µM (NA transporter) of 61%.
`COc1ccc(S(=O)(=O)N2CCC3(CC2)CC(C(=O)NC(C)Cc2ccc(Cl)cc2)=NO3)cc1` (stereo not shown) [Example 164, 8-(4-methoxy-benzenesulphonyl)-1-oxa-2,8-diaza-spiro[4,5]dec-2-ene-3-carboxylic acid [2-(4-chloro-phenyl)-1-methyl-ethyl]-amide] showed an inhibition at 10 µM (5HT-uptake) of 54% and an inhibition at 10 µM (NA transporter) of 80%.
With `O=C(C1=NOC2(CCN(S(=O)(=O)c3ccc(Cl)s3)CC2)C1)N1CCN(c2ccccc2)CC1` [Example 4, [8-(5-chloro-thiophene-2-sulphonyl)-1-oxa-2,8-diaza-spiro[4,5]dec-2-en-3-yl]-(4-phenyl-piperazin-1-yl)-methanone] the inhibition at 10 µM (5HT-uptake) was 54% and the inhibition at 10 µM (NA transporter) was 45%.
With `CC(NC(=O)C1=NOC2(CCN(S(=O)(=O)c3cccs3)CC2)C1)c1cccc2c1OCCO2` (stereo not shown) [Example 84, 8-(thiophene-2-sulphonyl)-1-oxa-2,8-diaza-spiro[4,5]dec-2-ene-3-carboxylic acid [1-(2,3-dihydro-benzo[1,4]dioxin-5-yl)-ethyl]-amide] the inhibition at 10 µM (5HT-uptake) was 68% and the inhibition at 10 µM (NA transporter) was 67%.
In the case of `O=C(C1=NOC2(CCN(S(=O)(=O)c3cccs3)CC2)C1)N1CCN(C2CCCCCC2)CC1` [Example 3, (4-cycloheptyl-piperazin-l-yl)-[8-(thiophene-2-sulphonyl)-1-oxa-2,8-diaza-spiro [4,5]dec-2-en-3-yl]-methanone], the “5HT-uptake, 10 μM, % inhibition” value (5HT-uptake) is reported as 51% and the “NA-uptake, 10 μM, % inhibition” value (NA transporter) is reported as 59%.
`O=C(NCC1COc2ccccc2O1)C1=NOC2(CCN(S(=O)(=O)c3cccs3)CC2)C1` (stereo not shown) [Example 21, 8-(thiophene-2-sulphonyl)-1-oxa-2,8-diaza-spiro[4,5]dec-2-ene-3-carboxylic acid (2,3-dihydro-benzo[1,4]dioxin-2-ylmethyl)-amide] gave an inhibition at 10 µM (NA transporter) of 61% and an inhibition at 1 µM (α2A-receptor) of 31%.
In the case of `O=C(C1=NOC2(CCN(S(=O)(=O)Cc3ccccc3)CC2)C1)N1CCN(CCCc2ccccc2)CC1` [Example 69], the “5HT-uptake, 10 μM, % inhibition” value (5HT-uptake) is reported as 63% and the “NA-uptake, 10 μM, % inhibition” value (NA transporter) is reported as 56%.
In the case of `COc1ccc(S(=O)(=O)N2CCC3(CC2)CC(C(=O)NCCc2ccccc2F)=NO3)cc1` [Example 104], the “5HT-uptake, 10 μM, % inhibition” value (5HT-uptake) is reported as 41% and the “NA-uptake, 10 μM, % inhibition” value (NA transporter) is reported as 49%.
With `Cc1ccc(S(=O)(=O)N2CCC3(CC2)CC(C(=O)NC2CCCC2OCc2ccccc2)=NO3)cc1` (stereo not shown) [Example 67, 8-(toluene-4-sulphonyl)-1-oxa-2,8-diaza-spiro[4,5]dec-2-ene-3-carboxylic acid (2-benzyloxy-cyclopentyl)-amide] the inhibition at 10 µM (5HT-uptake) was 58% and the “NA-uptake, 10 μM, % inhibition” value (NA transporter; 10 µM) was 59%.
With `O=C(NCc1cccs1)C1=NOC2(CCN(S(=O)(=O)c3ccccc3Cl)CC2)C1` [Example 156, 8-(2-chloro-benzenesulphonyl)-1-oxa-2,8-diaza-spiro[4,5]dec-2-ene-3-carboxylic acid (thiophen-2-ylmethyl)-amide] the inhibition at 10 µM (5HT-uptake) was 41% and the inhibition at 10 µM (NA transporter) was 60%.
In the case of `O=C(C1=NOC2(CCN(S(=O)(=O)c3cccs3)CC2)C1)N1CCN(CCCc2ccccc2)CC1` [Example 14, [4-(3-phenyl-propyl)-piperazin-l-yl]-[8-(thiophene-2-sulphonyl)-1-oxa-2,8-diaza-spiro[4,5]dec-2-en-3-yl]-methanone], the “5HT-uptake, 10 μM, % inhibition” value (5HT-uptake) is reported as 78% and the “NA-uptake, 10 μM, % inhibition” value (NA transporter) is reported as 70%.
`CC(NC(=O)C1=NOC2(CCN(S(=O)(=O)c3cc(Cl)ccc3Cl)CC2)C1)C(=O)Nc1ccc2ccccc2c1` (stereo not shown) [Example 44, 8-(2,5-dichloro-benzenesulphonyl)-1-oxa-2,8-diaza-spiro[4,5]dec-2-ene-3-carboxylic acid [1-(naphthalen-2-ylcarbamoyl)-ethyl]amide] showed an inhibition at 10 µM (5HT-uptake) of 80% and an inhibition at 10 µM (NA transporter) of 48%.
`O=C(NC1CCN(Cc2ccc3ccccc3c2)C1)C1=NOC2(CCN(S(=O)(=O)c3ccc(Cl)s3)CC2)C1` (stereo not shown) [Example 50, 8-(5-chloro-thiophene-2-sulphonyl)-1-oxa-2,8-diaza-spiro[4,5]dec-2-ene-3 carboxylic acid (1-naphthalen-2-ylmethyl-pyrrolidin-3-yl)-amide] gave an inhibition at 10 µM (5HT-uptake) of 57% and an inhibition at 10 µM (NA transporter) of 50%.
`CCOC(=O)N1CCC(NC(=O)C2=NOC3(CCN(C(=O)C4CC4c4ccccc4)CC3)C2)CC1` (stereo not shown) [Example 55, 4-{[8-(2-phenyl-cyclopropanecarbonyl)-1-oxa-2,8-diaza-spiro[4,5]dec-2-ene-3-carbonyl]-amino}-piperidine-1-carboxylic acid ethyl ester] gave an inhibition at 10 µM (5HT-uptake) of 65% and an inhibition at 10 µM (NA transporter) of 50%.
`COc1cccc(CN2CCC(NC(=O)C3=NOC4(CCN(S(=O)(=O)c5cc(Cl)ccc5Cl)CC4)C3)C2)c1` (stereo not shown) [Example 64] was tested, and the “5HT-uptake, 10 μM, % inhibition” value (5HT-uptake) was 61% and the “NA-uptake, 10 μM, % inhibition” value (NA transporter) was 61%.
For `CN(C)S(=O)(=O)N1CCC2(CC1)CC(C(=O)N1CCN(C3CCCCCC3)CC1)=NO2` [Example 144, 3-(4-cycloheptyl-piperazine-1-carbonyl)-1-oxa-2,8-diaza-spiro[4,5]dec-2-ene-8 sulphonic acid dimethylamide], the inhibition at 10 µM (5HT-uptake) was 41% and the inhibition at 10 µM (NA transporter) was 56%.
Work on `Cc1ccc(F)cc1S(=O)(=O)N1CCC2(CC1)CC(C(=O)NCCN(C)C)=NO2` [Example 37, 8-(5-fluoro-2-methyl-benzenesulphonyl)-1-oxa-2,8-diaza-spiro[4,5]dec-2-ene-3-carboxylic acid (2-dimethylamino-ethyl)-amide] yielded an inhibition at 10 µM (5HT-uptake) of 70% and an inhibition at 10 µM (NA transporter) of 52%.
Compound `Cc1ccccc1N1CCN(C(=O)C2=NOC3(CCN(S(=O)(=O)c4cccs4)CC3)C2)CC1` [Example 27, [8-(thiophene-2-sulphonyl)-1-oxa-2,8-diaza-spiro[4,5]dec-2-en-3-yl]-(4-o-tolyl-piperazin-1-yl)-methanone] has an inhibition at 10 µM (5HT-uptake) of 49%, an inhibition at 10 µM (NA transporter) of 80% and an inhibition at 1 µM (α2A-receptor) of 37%.
For `Cc1ccc(CNC(=O)C2=NOC3(CCN(C(=O)c4ccc(Br)cc4)CC3)C2)o1` [Example 109, 8-(4-bromo-benzoyl)-1-oxa-2,8-diaza-spiro[4,5]dec-2-ene-3-carboxylic acid (5-methyl-furan-2-ylmethyl)-amide], the inhibition at 10 µM (5HT-uptake) was 56% and the inhibition at 10 µM (NA transporter) was 40%.
For `CN(C)S(=O)(=O)N1CCC2(CC1)CC(C(=O)N1CCN(Cc3ccc4ccccc4c3)CC1)=NO2` [Example 65, 3-(4-naphthalen-2-ylmethyl-piperazine-1-carbonyl)-1-oxa-2,8-diaza-spiro[4,5]dec-2-ene-8-sulphonic acid dimethylamide], the inhibition at 10 µM (5HT-uptake) was 81% and the inhibition at 10 µM (NA transporter) was 63%.
With `Cc1ccc(S(=O)(=O)N2CCC3(CC2)CC(C(=O)NCCc2ccc(Cl)c(Cl)c2)=NO3)cc1` [Example 9] the “5HT-uptake, 10 μM, % inhibition” value (5HT-uptake) was 75% and the “NA-uptake, 10 μM, % inhibition” value (NA transporter) was 77%.
